According to the supplement of paper PMC10307832:

Assays:
Test in all cases: relative viability (nuclei count vs DMSO), 5 days (fraction); higher = more cells survive
[1] = compound: CN(c1ncccc1CNc1nc(Nc2ccc3c(c2)CC(=O)N3)ncc1C(F)(F)F)S(C)(=O)=O + CC(=O)Nc1cccc(-n2c(=O)n(C3CC3)c(=O)c3c(Nc4ccc(I)cc4F)n(C)c(=O)c(C)c32)c1 [Trametinib] (partner 0.02 µM)
Procedure, shortened: (§1)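 One day after seeding in 1536-well plates, lung cancer cell lines were dosed by pin tool. Dosing was either single-drug or a fixed anchor-drug dose plus five library-drug doses (not always all listed) in √10 steps. After 5 days, nuclei were stained in one fix-and-stain step and counted on 4× images, and relative viability is the nuclei count of treated wells over that of vehicle wells, given as the median of duplicate plates.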

[2] = compound: CN(c1ncccc1CNc1nc(Nc2ccc3c(c2)CC(=O)N3)ncc1C(F)(F)F)S(C)(=O)=O + C[C@@H](Oc1cc(-c2cnn(C3CCNCC3)c2)cnc1N)c1c(Cl)ccc(F)c1Cl [Crizotinib] (partner 1 µM)
Procedure, shortened: as §1

[3] = compound: CN(c1ncccc1CNc1nc(Nc2ccc3c(c2)CC(=O)N3)ncc1C(F)(F)F)S(C)(=O)=O + N=C(N)NC(=N)NCCc1ccccc1 [Phenformin] (partner 250 µM)
Procedure, shortened: as §1

[4] = compound: CN(c1ncccc1CNc1nc(Nc2ccc3c(c2)CC(=O)N3)ncc1C(F)(F)F)S(C)(=O)=O + COc1cccc2cc(-c3nc([C@H]4CC[C@H](C(=O)O)CC4)n4ncnc(N)c34)[nH]c12 [OSI-027] (partner 0.5 µM)
Procedure, shortened: as §1

Cell Line | relative viability ([1]; first compound 0.01 µM) | relative viability ([1]; first compound 0.03162 µM) | relative viability ([1]; first compound 0.1 µM) | relative viability ([1]; first compound 0.3162 µM) | relative viability ([1]; first compound 1 µM) | relative viability ([2]; first compound 0.01 µM) | relative viability ([2]; first compound 0.03162 µM) | relative viability ([2]; first compound 0.3162 µM) | relative viability ([2]; first compound 1 µM) | relative viability ([3]; first compound 0.01 µM) | relative viability ([3]; first compound 0.03162 µM) | relative viability ([3]; first compound 0.1 µM) | relative viability ([3]; first compound 0.3162 µM) | relative viability ([3]; first compound 1 µM) | relative viability ([4]; first compound 0.01 µM) | relative viability ([4]; first compound 0.03162 µM) | relative viability ([4]; first compound 0.1 µM) | relative viability ([4]; first compound 0.3162 µM) | relative viability ([4]; first compound 1 µM) | relative viability ([2]; first compound 0.1 µM)
NCI-H322M | 0.432 | 0.518 | 0.522 | 0.479 | 0.51 | 0.902 | 0.948 | 0.953 | 0.892 | 0.88 | 0.828 | 0.827 | 0.89 | 0.875 | 0.562 | 0.598 | 0.537 | 0.599 | 0.623 | 
NCI-H358 | 0.12 | 0.125 | 0.108 | 0.126 | 0.0973 | 0.608 | 0.449 | 0.449 | 0.303 | 0.336 | 0.338 | 0.317 | 0.317 | 0.202 | 0.791 | 0.822 | 0.849 | 0.815 | 0.752 | 0.515
NCI-H441 | 0.457 | 0.461 | 0.402 | 0.336 | 0.403 | 0.679 | 0.825 | 0.692 | 0.654 | 0.926 | 0.859 | 0.805 | 0.864 | 0.787 | 0.76 | 0.725 | 0.596 | 0.77 | 0.518 | 0.604
NCI-H460 | 0.108 | 0.139 | 0.2 | 0.185 | 0.129 | 1.1 | 1.15 | 0.891 | 0.712 | 0.599 | 0.75 | 0.499 | 0.484 | 0.495 | 0.666 | 0.964 | 0.691 | 0.705 | 0.665 | 0.994
NCI-H520 | 0.714 | 0.666 | 0.646 | 0.7 | 0.705 | 0.874 | 0.795 | 0.782 | 0.601 | 0.601 | 0.777 | 0.57 | 0.678 | 0.552 | 0.339 | 0.331 | 0.244 | 0.321 | 0.344 | 0.78
NCI-H596 | 0.932 | 0.779 | 0.559 | 0.781 | 0.728 | 0.988 | 0.928 | 0.986 | 0.999 | 0.807 | 0.745 | 0.657 | 0.611 | 0.763 | 0.698 | 0.799 | 0.664 | 0.731 | 0.669 | 0.894
NCI-H647 | 0.582 | 0.594 | 0.459 | 0.463 | 0.414 | 1.01 | 1.43 | 1 | 1.06 | 0.483 | 0.689 | 0.616 | 0.579 | 0.401 | 0.656 | 0.76 | 0.683 | 0.62 | 0.592 | 1.05
NCI-H650 | 1.02 | 1.01 | 0.994 | 1.02 | 0.88 | 0.68 | 0.727 | 0.538 | 0.675 | 0.492 | 0.464 | 0.396 | 0.393 | 0.441 | 0.401 | 0.555 | 0.408 | 0.455 | 0.465 | 0.675
NCI-H661 | 0.549 | 0.729 | 0.577 | 0.615 | 0.608 | 0.973 | 0.955 | 0.904 | 0.915 | 0.285 | 0.286 | 0.289 | 0.277 | 0.294 | 0.69 | 0.668 | 0.641 | 0.774 | 0.784 | 1.02
NCI-H727 | 0.386 | 0.364 | 0.404 | 0.424 | 0.333 | 0.925 | 1.02 | 0.885 | 0.689 | 0.626 | 0.655 | 0.389 | 0.616 | 0.444 | 0.782 | 0.75 | 0.649 | 0.59 | 0.537 | 0.633
NCI-H838 | 0.534 | 0.695 | 0.501 | 0.421 | 0.329 | 0.807 | 1.02 | 0.672 | 0.488 | 0.604 | 0.671 | 0.575 | 0.504 | 0.396 | 0.492 | 0.413 | 0.396 | 0.394 | 0.413 | 0.873
NCI-H1355 | 0.361 | 0.41 | 0.439 | 0.384 | 0.357 | 1.06 | 1.13 | 0.97 | 0.924 | 0.45 | 0.442 | 0.449 | 0.406 | 0.432 | 0.481 | 0.428 | 0.377 | 0.412 | 0.396 | 1.02
NCI-H1437 | 0.529 | 0.575 | 0.415 | 0.356 | 0.395 | 0.912 | 1.02 | 0.856 | 0.77 | 0.384 | 0.333 | 0.284 | 0.298 | 0.266 | 0.96 | 0.929 | 0.917 | 0.876 | 0.773 | 0.884
NCI-H1650 | 0.647 | 0.587 | 0.582 | 0.57 | 0.483 | 1.01 | 0.945 |  | 0.94 | 0.481 | 0.53 | 0.519 | 0.436 | 0.409 | 0.64 | 0.727 | 0.701 | 0.612 | 0.645 | 1.17
NCI-H1651 | 0.89 | 0.837 | 0.816 | 0.826 | 0.818 | 0.858 | 0.85 | 0.846 | 0.884 | 0.348 | 0.365 | 0.359 | 0.365 | 0.358 | 0.802 | 0.794 | 0.738 | 0.796 | 0.739 | 0.871
NCI-H1666 | 0.902 | 0.853 | 0.762 | 0.838 | 0.658 | 0.968 | 0.951 | 0.596 | 0.642 | 0.524 | 0.621 | 0.514 | 0.508 | 0.384 | 0.779 | 0.841 | 0.792 | 0.695 | 0.556 | 0.781
